Results taken from patent publication US20060079453A1, “Hla binding peptides and their uses” (priority 2002, published 2006).
No end group written: not given here.

Legend:
Assay in all cases: biochemical
Assay type in all cases: binding
HLA-DR DRB1*0802 (DR8) = HLA-DR DRB1*0802 (DR8) (Homo sapiens, UniProt P01903+P01911, A100R/A103L/A169T/F76Y/H45Y/I96F/K41T/L162R/M171V/P40S/Q125H/Q178H/Q39Y/Q99D/R218S/R42G/S66Y/V115G/W38E)
HLA-DR DRB1*0701 (DR7) = HLA-DR DRB1*0701 (DR7) (Homo sapiens, UniProt P01903+P01911, A100R/A102G/A103Q/D57E/D86V/E43K/F76Y/K127E/L162R/M171V/P40G/Q125H/Q99D/R33Q/R42Y/R54Q/S133A/S66F/T210M/V115G/Y107V/Y59L/Y89S); conditions: DRB1 *0701
HLA-DR DRB1*1501 (DR15) = HLA-DR DRB1*1501 (DR15) (Homo sapiens, UniProt P01903+P01911); conditions: DRBI *1501
HLA-DR DRB5*0101 (DR51) = HLA-DR DRB5*0101 (DR51) (Homo sapiens, UniProt P01903+Q30154); conditions: DRB5 *0101
HLA-DR DRB1*0901 (DR9) = HLA-DR DRB1*0901 (DR9) (Homo sapiens, UniProt P01903+P01911, A100R/A103E/D57H/D86V/F55Y/F60I/F76Y/I96F/K127E/L162R/M171V/P40D/Q125H/Q99R/R33Q/R42F/S133A/S66N/T210M/V115G/W38K/Y107V/Y59G/Y89S); conditions: DRB1 *0901
HLA-DR DRB1*1101 (DR11) = HLA-DR DRB1*1101 (DR11) (Homo sapiens, UniProt P01903+P01911, A100R/A169T/A87E/I96F/K41T/L162R/M171V/P40S/Q125H/Q178H/Q39Y/Q99D/R42S/S66Y/T262R/V115G/W38E); conditions: DRB1 *1101
HLA-DR DRB4*0101 (DR53) = HLA-DR DRB4*0101 (DR53) (Homo sapiens, UniProt P01903+P13762, G164S); conditions: DRB4 *0101
HLA-DR DRB1*0101 (DR1) = HLA-DR DRB1*0101 (DR1) (Homo sapiens, UniProt P01903+P01911, A100R/D57E/F55L/F60I/F76Y/I96L/L162R/M171V/P40L/Q125E/R42F/V115G/Y59C); conditions: DRB1 *0101
HLA-DR DRB3*0101 (DR52) = HLA-DR DRB3*0101 (DR52) (Homo sapiens, UniProt P01903+P79483)
HLA-DR DRB1*1302 (DR13) = HLA-DR DRB1*1302 (DR13) (Homo sapiens, UniProt P01903+P01911, A100E/A169T/K41T/L162R/M171V/P40S/Q125H/Q178H/Q39Y/Q99D/R42S/S66N/T262R/V115G/W38E/Y61H); conditions: DRBI *1302
HLA-DR DRB1*0401 (DR4) = HLA-DR DRB1*0401 (DR4) (Homo sapiens, UniProt P01903+P01911, A100K/A169T/F76Y/I96L/K127E/L162R/M171V/N62H/P40V/Q125Y/R42H/S133A/S149N/S66Y/V115G/V209L/W38E); conditions: DRB1 *0401

Sequence of HLA-DR DRB1*1101 (DR11) (P01903 26-254 limits assumed, other chains not shown): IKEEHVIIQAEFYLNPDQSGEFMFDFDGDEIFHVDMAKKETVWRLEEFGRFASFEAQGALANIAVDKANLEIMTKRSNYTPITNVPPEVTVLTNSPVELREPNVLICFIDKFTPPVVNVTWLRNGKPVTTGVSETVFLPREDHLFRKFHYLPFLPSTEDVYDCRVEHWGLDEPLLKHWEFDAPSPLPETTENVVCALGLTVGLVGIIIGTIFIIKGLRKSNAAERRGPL
Sequence of HLA-DR DRB1*1302 (DR13) (P01903 26-254 limits assumed, other chains not shown): as above

Row | Molecule | IC50 (HLA-DR DRB1*0802 (DR8)) [µM] | IC50 (HLA-DR DRB1*0701 (DR7)) [µM] | IC50 (HLA-DR DRB1*1501 (DR15)) [µM] | IC50 (HLA-DR DRB5*0101 (DR51)) [µM] | IC50 (HLA-DR DRB1*0901 (DR9)) [µM] | IC50 (HLA-DR DRB1*1101 (DR11)) [µM] | IC50 (HLA-DR DRB4*0101 (DR53)) [µM] | IC50 (HLA-DR DRB1*0101 (DR1)) [µM] | IC50 (HLA-DR DRB3*0101 (DR52)) [µM] | IC50 (HLA-DR DRB1*1302 (DR13)) [µM] | IC50 (HLA-DR DRB1*0401 (DR4)) [µM]
1 | CC[C@H](C)[C@H](NC(=O)[C@@H]1CCCN1C(=O)[C@H](CC(=O)O)NC(=O)[C@@H](NC(=O)[C@@H]1CCCN1C(=O)[C@H](Cc1ccccc1)NC(=O)[C@@H](NC(=O)[C@H](CC(=O)O)NC(=O)[C@@H](NC(=O)[C@@H]1CCCN1C(=O)[C@H](CO)NC(=O)[C@@H](N)CCCNC(=N)N)[C@@H](C)CC)[C@@H](C)O)[C@@H](C)O)C(=O)N[C@@H](CCCCN)C(=O)N[C@@H](CCC(=O)O)C(=O)N[C@@H](CO)C(=O)O | > 245 | > 62.5 | 2.37 | 28.6 | 6.12 | > 200 | 0.469 | > 50 | > 14.4 | > 35 | 
2 | CC[C@H](C)[C@H](NC(=O)[C@@H]1CCCN1C(=O)[C@H](CCC(N)=O)NC(=O)[C@@H](N)Cc1c[nH]c2ccccc12)C(=O)N1CCC[C@H]1C(=O)N[C@H](C(=O)N[C@@H](Cc1c[nH]cn1)C(=O)N[C@H](C(=O)N[C@H](C(=O)N1CCC[C@H]1C(=O)N[C@@H](CC(C)C)C(=O)N[C@@H](CO)C(=O)N[C@@H](CCC(=O)O)C(=O)N[C@@H](CC(=O)O)C(=O)N[C@@H](CCC(N)=O)C(=O)O)C(C)C)[C@@H](C)O)C(C)C | > 81.7 | 0.159 | > 45.5 | > 100 | 17.5 | > 66.7 | 1.23 | 6.39 | > 8.83 | 2.69 | > 26.7
3 | DFEVFFQRLGIASGR | 0.122 | 21.9 | 10.2 | 3.56 | 2 | 0.128 | 0.0042 |  | 30.7 | 10.1 | 0.221
4 | GKVFRGNKVKNAQLA | 4.12 | 2.35 | 3.37 |  | 31.3 | 0.894 | 7.88 | 0.612 | 7.59 | 0.046 | 1.09
5 | LSGLHGQDLFGIWSK | > 81.7 | > 35.7 | 32.2 | 81.7 | > 125 | 30.2 |  | 0.148 | > 8.83 | > 35 | > 26.7
6 | RVPVSHSFPHPLYNM | 100 |  | 5.52 |  | 0.097 | > 200 | 9.21 | 0.067 | > 14.9 | 0.377 | > 16
7 | TNKFSGYPLYHSVYE | 0.614 | 30.9 | 0.489 | 2.94 | 0.741 | 33.3 |  | 3.4 | > 21.9 | > 35 | 5.52
